Results from patent US10266497B2 (ABIDE THERAPEUTICS, INC., priority 2017, dated 2019).

Key:
MAGL [1] = target: T1, MAGL (Homo sapiens, UniProt Q99685); assay: In vitro competitive activity-based protein profiling, MAGL, human; details: read-out: MAGL % inh. 1 μM (human)
T1 sequence (Q99685 1-303): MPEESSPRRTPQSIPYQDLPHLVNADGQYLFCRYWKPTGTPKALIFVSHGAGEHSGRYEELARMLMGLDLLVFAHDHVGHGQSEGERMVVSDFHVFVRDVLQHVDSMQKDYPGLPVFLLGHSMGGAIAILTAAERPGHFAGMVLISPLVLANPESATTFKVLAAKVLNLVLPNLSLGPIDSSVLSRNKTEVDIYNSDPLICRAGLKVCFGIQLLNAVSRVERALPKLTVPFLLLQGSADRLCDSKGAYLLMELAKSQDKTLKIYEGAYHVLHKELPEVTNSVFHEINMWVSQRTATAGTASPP

MAGL [2] = target: T2, MAGL (Mus musculus, UniProt O35678); assay: In vitro competitive activity-based protein profiling, MAGL, mouse; details: read-out: MAGL % inh. 1 μM (mouse)
T2 sequence (O35678 1-303): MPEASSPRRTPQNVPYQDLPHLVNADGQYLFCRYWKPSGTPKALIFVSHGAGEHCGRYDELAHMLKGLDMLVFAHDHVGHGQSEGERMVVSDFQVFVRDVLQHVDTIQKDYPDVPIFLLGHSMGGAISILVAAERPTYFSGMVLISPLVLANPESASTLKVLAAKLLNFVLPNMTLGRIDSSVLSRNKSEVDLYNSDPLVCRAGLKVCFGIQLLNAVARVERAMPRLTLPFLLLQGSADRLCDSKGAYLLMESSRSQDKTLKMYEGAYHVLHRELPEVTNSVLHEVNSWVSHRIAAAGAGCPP

FAAH [3] = target: T3, FAAH (Homo sapiens, UniProt O00519); assay: In vitro competitive activity-based protein profiling, FAAH, human; details: for inhibition at 1 µM: read-out: FAAH % inh. 1 μM (human)
T3 sequence (O00519 1-579): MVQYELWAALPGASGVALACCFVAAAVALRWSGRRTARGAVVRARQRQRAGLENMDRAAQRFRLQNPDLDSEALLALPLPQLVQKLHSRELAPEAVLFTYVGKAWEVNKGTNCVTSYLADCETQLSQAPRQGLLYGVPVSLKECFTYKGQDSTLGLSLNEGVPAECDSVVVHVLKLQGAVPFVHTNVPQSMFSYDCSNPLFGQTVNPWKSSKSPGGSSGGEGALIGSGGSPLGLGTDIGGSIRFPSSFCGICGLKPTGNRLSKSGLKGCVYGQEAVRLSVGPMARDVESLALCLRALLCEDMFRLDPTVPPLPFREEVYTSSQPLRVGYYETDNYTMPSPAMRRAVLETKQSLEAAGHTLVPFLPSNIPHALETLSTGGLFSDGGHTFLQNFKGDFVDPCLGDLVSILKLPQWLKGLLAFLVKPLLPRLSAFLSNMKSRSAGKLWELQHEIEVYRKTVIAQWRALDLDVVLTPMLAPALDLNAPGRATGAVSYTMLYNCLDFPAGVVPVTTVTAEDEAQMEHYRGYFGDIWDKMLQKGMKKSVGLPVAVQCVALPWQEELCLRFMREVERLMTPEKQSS

FAAH [4] = target: T4, FAAH (Mus musculus, UniProt O08914); assay: In vitro competitive activity-based protein profiling, FAAH, mouse; details: read-out: FAAH % inh. 1 μM (mouse)
T4 sequence (O08914 1-579): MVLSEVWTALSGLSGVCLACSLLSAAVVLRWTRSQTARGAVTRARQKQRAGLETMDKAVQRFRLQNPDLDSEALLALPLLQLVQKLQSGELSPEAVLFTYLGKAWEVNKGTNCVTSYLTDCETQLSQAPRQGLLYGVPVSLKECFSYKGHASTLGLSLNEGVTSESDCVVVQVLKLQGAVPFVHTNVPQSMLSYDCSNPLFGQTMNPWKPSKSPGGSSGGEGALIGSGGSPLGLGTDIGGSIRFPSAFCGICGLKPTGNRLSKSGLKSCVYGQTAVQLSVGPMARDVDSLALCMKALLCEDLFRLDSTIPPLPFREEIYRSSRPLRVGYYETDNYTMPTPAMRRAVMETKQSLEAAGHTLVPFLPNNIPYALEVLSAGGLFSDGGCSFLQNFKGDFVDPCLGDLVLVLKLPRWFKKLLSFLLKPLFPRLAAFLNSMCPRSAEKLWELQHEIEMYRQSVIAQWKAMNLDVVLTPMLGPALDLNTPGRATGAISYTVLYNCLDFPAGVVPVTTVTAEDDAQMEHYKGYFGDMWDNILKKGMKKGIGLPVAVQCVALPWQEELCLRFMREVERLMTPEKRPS

MAGL [5] = target: T2, MAGL; assay: Mouse brain proteomes from inhibitor treated mice (oral gavage, sacrificed 4 h after administration); assay type: in vivo; parameters: mouse brain membrane fraction for mouse assays; from tissue; host or cells: mouse brain (membrane fraction in vitro; brain proteomes of treated C57Bl/6J mice in vivo); details: 5 mg/kg oral gavage, brain proteome 4 h after administration, read-out: MAGL % inh. 5 mg/kg (mouse)
FAAH [6] = target: T4, FAAH; assay: Mouse brain proteomes from inhibitor treated mice (oral gavage, sacrificed 4 h after administration), FAAH; assay type: in vivo; parameters: mouse brain membrane fraction for mouse assays; from tissue; host or cells: mouse brain (membrane fraction in vitro; brain proteomes of treated C57Bl/6J mice in vivo); details: 5 mg/kg oral gavage, brain proteome 4 h after administration, read-out: FAAH % inh. 5 mg/kg (mouse)

inhibition at 1 µM (MAGL [1]) | inhibition at 1 µM (MAGL [2]) | inhibition at 1 µM (FAAH [3]) | inhibition at 1 µM (FAAH [4]) | inhibition at 5 mg/kg (MAGL [5]) | inhibition at 5 mg/kg (FAAH [6]) | IC50 (FAAH [3]) | Structure (SMILES)
> 75% | > 75% | 0 to 25% | 0 to 25% | 0 to 25% | 0 to 25% |  | O=C(O)c1ccn(C(=O)N2CCC3(CCCN3Cc3cc(Cl)cc(C(F)(F)F)c3)CC2)n1 [Example 86, 1-(1-(3-chloro-5-(trifluoromethyl)benzyl)-1,8-diazaspiro[4.5]decane-8-carbonyl)-1H-pyrazole-3-carboxylic acid]
> 75% | > 75% | 0 to 25% | 0 to 25% | 0 to 25% | 0 to 25% | 1 to 10 µM | O=C(O)c1ccn(C(=O)N2CCN(Cc3ccc(C(F)(F)F)cc3N3CCCC3)CC2)n1 [Example 83, 1-(4-(2-(pyrrolidin-1-yl)-4-(trifluoromethyl)benzyl)piperazine-1-carbonyl)-1H-pyrazole-3-carboxylic acid]
> 75% | > 75% | 0 to 25% | 0 to 25% | 0 to 25% | 0 to 25% |  | CN(Cc1ccc(C(F)(F)F)cc1-c1nccs1)C1(C)CCN(C(=O)n2ccc(C(=O)O)n2)CC1 [Example 10, 1-(4-methyl-4-(methyl(2-(thiazol-2-yl)-4-(trifluoromethyl)benzyl)amino)piperidine-1-carbonyl)-1H-pyrazole-3-carboxylic Acid]
> 75% | > 75% | 50 to 75% | 0 to 25% | 0 to 25% | 0 to 25% | 0.1 to 1 µM | O=C(O)c1ccn(C(=O)N2CCN(Cc3cccc(Oc4ccc(F)cc4)c3)CC2)n1 [Example 51, 1-(4-(3-(4-fluorophenoxy)benzyl)piperazine-1-carbonyl)-1H-pyrazole-3-carboxylic acid]
> 75% | > 75% | 0 to 25% | 0 to 25% | 0 to 25% | 0 to 25% |  | Cc1c(CN2CCN(C(=O)n3ccc(C(=O)O)n3)CC2)[nH]c2ccc(Cl)cc12 [Example 188, 1-(4-((5-chloro-3-methyl-1H-indol-2-yl)methyl)piperazine-1-carbonyl)-1H-pyrazole-3-carboxylic acid]
> 75% | > 75% | 50 to 75% | > 75% | 0 to 25% | 0 to 25% |  | O=C(O)c1ccn(C(=O)N2CC3CN(Cc4ccc(N5CCCC5)cc4C(F)(F)F)CC3C2)n1 (stereo not drawn) [Example 123, 1-(5-(4-(pyrrolidin-1-yl)-2-(trifluoromethyl)benzyl)octahydro-pyrrolo[3,4-c]pyrrole-2-carbonyl)-1H-pyrazole-3-carboxylic acid]
> 75% | > 75% | 0 to 25% | 0 to 25% | 0 to 25% | 0 to 25% |  | C[C@H]1CCCN1c1cc(C(F)(F)F)ccc1CN1CCN(C(=O)n2ccc(C(=O)O)n2)CC1 [Example 104, (S)-1-(4-(2-(2-methylpyrrolidin-1-yl)-4-(trifluoromethyl)benzyl)piperazine-1-carbonyl)-1H-pyrazole-3-carboxylic acid]
> 75% | > 75% | 0 to 25% | 0 to 25% | 0 to 25% | 0 to 25% |  | O=C(O)c1ccn(C(=O)N2CCC(Oc3ccc(Cl)cc3N3CCCC3)CC2)n1 [Example 11, 1-(4-(4-Chloro-2-(pyrrolidin-1-yl)phenoxy)piperidine-1-carbonyl)-1H-pyrazole-3-carboxylic Acid]
> 75% | > 75% | 0 to 25% | 0 to 25% | 0 to 25% | 0 to 25% | 1 to 10 µM | O=C(O)c1ccn(C(=O)N2CCC3(CCCN3Cc3ccc(C(F)(F)F)cc3N3CCCC3)CC2)n1 [Example 93, 1-(1-(2-(pyrrolidin-1-yl)-4-(trifluoromethyl)benzyl)-1,8-diazaspiro[4.5]decane-8-carbonyl)-1H-pyrazole-3-carboxylic acid]
> 75% | > 75% | 0 to 25% | 0 to 25% | 0 to 25% | 0 to 25% |  | O=C(O)c1ccn(C(=O)N2CCC3(CCCN3Cc3cc4ccc(C(F)(F)F)cc4s3)CC2)n1 [Example 185, 1-(1-((6-(trifluoromethyl)benzo[b]thiophen-2-yl)methyl)-1,8-diazaspiro[4.5]decane-8-carbonyl)-1H-pyrazole-3-carboxylic acid]
> 75% | > 75% | 25 to 50% | 0 to 25% | 0 to 25% | 0 to 25% |  | O=C(O)c1ccn(C(=O)N2CCN(Cc3cc4cc(Cl)ccc4s3)CC2)n1 [Example 187, 1-(4-((5-chlorobenzo[b]thio-phen-2-yl)methyl)piperazine-1-carbonyl)-1H-pyrazole-3-carboxylic acid]

Structure (SMILES) | inhibition at 1 µM (MAGL [1]) | inhibition at 1 µM (MAGL [2]) | inhibition at 1 µM (FAAH [3]) | inhibition at 1 µM (FAAH [4]) | inhibition at 5 mg/kg (MAGL [5]) | inhibition at 5 mg/kg (FAAH [6]) | IC50 (FAAH [3])
O=C(O)c1ccn(C(=O)N2CCN(Cc3ccc(C(F)(F)F)c(N4C5CCC4COC5)c3)CC2)n1 [Example 40, 1-(4-(3-(3-oxa-8-azabicyclo[3.2.1]octan-8-yl)-4-(trifluoromethyl)benzyl)piperazine-1-carbonyl)-1H-pyrazole-3-carboxylic acid] | > 75% | > 75% | 0 to 25% | 0 to 25% | 0 to 25% | 0 to 25% | 
O=C(O)c1ccn(C(=O)N2CCN(Cc3ccc(C(F)(F)F)cc3N3C4CCC3COC4)CC2)n1 [Example 118, 1-(4-(2-(3-oxa-8-azabicyclo[3.2.1]octan-8-yl)-4-(trifluoromethyl)benzyl)piperazine-1-carbonyl)-1H-pyrazole-3-carboxylic acid] | > 75% | > 75% | 0 to 25% | 0 to 25% | 0 to 25% | 0 to 25% | 
